# From patent US11213527B2, “Inhibitory effect of low molecular weight compound on cancer and fibrosis” (NATIONAL UNIVERSITY CORPORATION TOTTORI UNIVERSITY, priority 2014, dated 2022)
# Experiments:
# [1] = test system: CD44-positive HuH7 cells; assay: Liver cancer model mice, CD44-positive HuH7 cells subcutaneously transplanted; type: in vivo; settings: for change in the body weight: 50 mg/kg IC-2 or 30 mg/kg 5-FU intraperitoneally every 3 days
# Method: CD44-positive HuH7 cells were subcutaneously transplanted into mice. The mice were then divided into 3 groups (DMSO group: 5 mice; 5-FU group: 4 mice; and IC-2 group: 4 mice). Subsequently, 30 mg/kg of 5-FU, 50 mg/kg of IC-2, or DMSO (as a control), which was a solvent for each chemical, was intraperitoneally administered every 3 days. The body weight and the tumor length and width of each mouse were measured every 3 days. The tumor volume was calculated by using the following equation: Tumor volume=Length×(Width)^2×0.5. The volume at Day 0 was used to normalize each tumor volume, and then a graph was created. To sufficiently evaluate an effect of 5-FU, the dosage that was usually […] in research articles was doubled to set a 5-FU dose. The IC-2 concentration corresponding to a concentration at which a Wnt/β-catenin signal was inhibited in vitro was calculated. Then, the concentration was doubled to set an IC-2 dose.
# [2] = test system: liver cancer cell line HLF (CD90); assay: FACS analysis of CD90-expressing cells; type: cell-based, human; settings: 0.5 μM 5-FU, 50 μM IC-2, two days, DMSO 21.8%
# Method: A liver cancer cell line HLF was seeded at 1.5×10^6 cells/dish on 10-cm dishes. Next, the cells were cultured at 37° C. and 5% CO2. After 24 hours, 1% DSMO, 0.5 μM 5-FU, or 50 μM IC-2 was added thereto and the cells were further incubated. Two days after the chemical treatment, the cells were harvested. Then, the cells were blocked in 0.5% BSA/0.5% FBS/2 mM EDTA/PBS. Subsequently, 5 μL of an APC-labeled mouse anti-human CD90 antibody (BD Biosciences, San Jose, Calif., USA) was added to 500 μL of a cell suspension and the resulting mixture was resuspended and incubated at 4° C. for 10 min to carry out a primary antibody reaction. After the antibody reaction, the cells were washed twice with 0.5% FBS/2 mM EDTA/PBS and once with 5% FBS/2 mM EDTA/DMEM. Next, the cells were resuspended in 500 μL of 5% FBS/2 mM EDTA/PBS. Then, 1 μg/mL of propidium iodide was added thereto. After that, the mixture was made to pass through a tube with a 40-μm mesh filter. Finally, a Beckman Coulter-MoFlo XDP was used to analyze CD90-expressing cells. […] The concentration of IC-2 was determined on the basis of a concentration at which a Wnt/β-catenin signal was inhibited.
# [3] = test system: liver cancer cell line HepG2 (CD133); assay: FACS analysis of CD133-expressing cells; type: cell-based, human; settings: 0.5 μM 5-FU, 50 μM IC-2, two days, DMSO 57.1%
# Method: (§1) A liver cancer cell line HepG2 was seeded at 1.5×10^6 cells/dish on 10-cm dishes. Next, the cells were cultured at 37° C. and 5% CO2. After 24 hours, 1% DSMO, 0.5 μM 5-FU, or 50 μM IC-2 was added thereto and the cells were further incubated. Then, the cells were harvested at two days after the chemical treatment. Meanwhile, the cells were blocked in 0.5% BSA/0.5% FBS/2 mM EDTA/PBS. Subsequently, 50 μL of an anti-human CD133 monoclonal antibody (Miltenyi Biotec) was added to 500 μL of a cell suspension and the resulting mixture was resuspended and incubated at 4° C. for 10 min to carry out a primary antibody reaction. After the primary antibody reaction, the cells were washed 3 times with 1 mL of PBS. After 1.0 μg of an Alexa 488-labeled goat anti-mouse IgG antibody (Life Technologies Corp., Carlsbad, Calif., USA) was added, the mixture was resuspended and a secondary antibody reaction was performed in a dark room for 10 min at 4° C. Thereafter, the cells were washed twice with 5% FBS/2 mM EDTA/PBS and once with 5% FBS/2 mM EDTA/DEME. Next, the cells were resuspended in 500 μL of 5% FBS/2 mM EDTA/PBS. Then, 1 μg/mL of propidium iodide was added thereto. After that, the mixture was made to pass through a tube with a 40-μm mesh filter. Finally, a Beckman Coulter-MoFlo XDP was used to analyze CD133-expressing cells.
# [4] = test system: liver cancer cell line HepG2 (EpCAM); assay: FACS analysis of EpCAM-expressing cells; type: cell-based, human; settings: 0.5 μM 5-FU, 50 μM IC-2, two days, DMSO 76.2%
# Method: as §1, with “Subsequently, 0.3” for “Subsequently, 50”, “anti-human EpCAM” for “anti-human CD133”, “antibody (Cell Signaling Technology Inc., Danvers, Mass., USA)” for “antibody (Miltenyi Biotec)”, “analyze EpCAM-expressing” for “analyze CD133-expressing”
# [5] = test system: CD44-expressing HSC2 cells; assay: Inhibitory effect on cancer stem cells in squamous cell carcinoma (CD44 FACS); type: cell-based, human; settings: 5-FU 0.5 μM, IC-2 25 μM, PN-3-13 7.5 μM, HC-1 50 μM, 48 hours, no treatment 83.9%
# Method: First, 5×10^5 of HSC2 cells were plated on a 10-cm dish. After 24 hours, the cells were treated with 5-FU (0.5 μM), IC-2 (25 μM), PN-3-13 (7.5 μM), or HC-1 (50 μM). Also, some of the cells were prepared without low-molecular-weight compound treatment (0 μM). After additional 48 hours, the cells were harvested. An anti-human CD44 antibody (Abcam Ltd., Cambridge, UK) was used as a primary antibody and an Alexa 488-labeled goat anti-mouse IgG antibody (Life Technologies Corp., Carlsbad, Calif., USA) was then used. After that, analysis was performed by using a cell sorter, BD bioscience FACS Aria (BD Biosciences, CA, USA). Note that the concentration of each low-molecular-weight compound was determined on the basis of the IC50 concentration at 48 hours in a WST assay.
Structure (SMILES),change in the body weight [1],proportion of the CD90-expressing cells [2] [%],proportion of the CD133-expressing cells [3] [%],proportion of the EpCAM-expressing cells [4] [%],proportion of CD44-expressing cells [5] [%],therapeutic effect of treating a malignant tumor (tumor volume) ([1]; 50 mg/kg IC-2 vs 30 mg/kg 5-FU intraperitoneally every 3 days)
"O=c1[nH]cc(F)c(=O)[nH]1 [5-FU, reference compound]",no observable change in the body weight,24.1,33.3,81.4,83.3,–
O=C1[C@H](Cc2ccccc2)N2C(=O)CCN(C(=O)NCc3ccccc3)[C@H]2CN1Cc1cccc2ccccc12 [IC-2],no observable change in the body weight,13.5,1.45,51.1,71.4,significantly higher therapeutic effect of treating a malignant tumor than that of 5-FU
